≈ marks a conversion by molar mass, not a printed value. Each block holds one compound with its values, some of them ahead of it.
Experiments:
[1] = molecular target: T1, Phosphatidylinositol 4,5-bisphosphate 3-kinase catalytic subunit delta isoform (Homo sapiens, UniProt O00329); assay: Inhibition of PI3Kdelta (unknown origin)
T1 sequence (O00329 whole entry): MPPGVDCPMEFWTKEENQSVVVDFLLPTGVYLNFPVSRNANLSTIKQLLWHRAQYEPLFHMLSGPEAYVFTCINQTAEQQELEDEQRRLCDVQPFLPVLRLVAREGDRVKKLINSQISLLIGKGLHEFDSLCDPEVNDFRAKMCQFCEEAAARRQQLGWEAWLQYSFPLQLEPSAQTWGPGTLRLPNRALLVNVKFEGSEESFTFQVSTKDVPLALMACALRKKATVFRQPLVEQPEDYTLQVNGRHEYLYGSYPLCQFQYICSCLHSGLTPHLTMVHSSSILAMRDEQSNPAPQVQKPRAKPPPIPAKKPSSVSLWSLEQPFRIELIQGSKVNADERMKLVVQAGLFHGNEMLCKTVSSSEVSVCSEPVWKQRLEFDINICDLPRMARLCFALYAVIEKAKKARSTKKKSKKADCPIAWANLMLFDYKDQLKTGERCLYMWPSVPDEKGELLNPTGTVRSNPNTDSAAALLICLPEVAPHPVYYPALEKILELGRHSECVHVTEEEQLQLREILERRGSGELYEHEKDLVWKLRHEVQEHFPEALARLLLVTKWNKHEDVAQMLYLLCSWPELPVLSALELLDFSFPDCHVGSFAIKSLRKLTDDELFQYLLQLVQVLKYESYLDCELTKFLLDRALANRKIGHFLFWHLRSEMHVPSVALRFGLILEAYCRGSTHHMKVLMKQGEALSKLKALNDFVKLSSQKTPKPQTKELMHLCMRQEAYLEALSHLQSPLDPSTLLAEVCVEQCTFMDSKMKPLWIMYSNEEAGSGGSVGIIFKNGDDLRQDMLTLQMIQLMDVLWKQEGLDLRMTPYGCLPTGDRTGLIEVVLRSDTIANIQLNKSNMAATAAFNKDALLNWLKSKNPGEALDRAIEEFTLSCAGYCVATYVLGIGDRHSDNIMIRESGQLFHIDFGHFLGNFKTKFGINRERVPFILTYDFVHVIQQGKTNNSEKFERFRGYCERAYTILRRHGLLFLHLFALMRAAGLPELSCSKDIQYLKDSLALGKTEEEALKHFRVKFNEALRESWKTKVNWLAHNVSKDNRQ

[2] = Aqueous solubility of the compound at pH 7.4; format: physicochemical
[3] = molecular target: T2, Phosphatidylinositol 4,5-bisphosphate 3-kinase catalytic subunit beta isoform (Homo sapiens, UniProt P42338); assay: Inhibition of N-terminal His-tagged truncated human PI3Kbeta (deltaN 1 to 108 residues) after 2 hrs in presence of [33P]ATP by BetaPlate liquid scintillation counting analysis
T2 sequence (P42338 whole entry, the tested form may be a part, canonical isoform): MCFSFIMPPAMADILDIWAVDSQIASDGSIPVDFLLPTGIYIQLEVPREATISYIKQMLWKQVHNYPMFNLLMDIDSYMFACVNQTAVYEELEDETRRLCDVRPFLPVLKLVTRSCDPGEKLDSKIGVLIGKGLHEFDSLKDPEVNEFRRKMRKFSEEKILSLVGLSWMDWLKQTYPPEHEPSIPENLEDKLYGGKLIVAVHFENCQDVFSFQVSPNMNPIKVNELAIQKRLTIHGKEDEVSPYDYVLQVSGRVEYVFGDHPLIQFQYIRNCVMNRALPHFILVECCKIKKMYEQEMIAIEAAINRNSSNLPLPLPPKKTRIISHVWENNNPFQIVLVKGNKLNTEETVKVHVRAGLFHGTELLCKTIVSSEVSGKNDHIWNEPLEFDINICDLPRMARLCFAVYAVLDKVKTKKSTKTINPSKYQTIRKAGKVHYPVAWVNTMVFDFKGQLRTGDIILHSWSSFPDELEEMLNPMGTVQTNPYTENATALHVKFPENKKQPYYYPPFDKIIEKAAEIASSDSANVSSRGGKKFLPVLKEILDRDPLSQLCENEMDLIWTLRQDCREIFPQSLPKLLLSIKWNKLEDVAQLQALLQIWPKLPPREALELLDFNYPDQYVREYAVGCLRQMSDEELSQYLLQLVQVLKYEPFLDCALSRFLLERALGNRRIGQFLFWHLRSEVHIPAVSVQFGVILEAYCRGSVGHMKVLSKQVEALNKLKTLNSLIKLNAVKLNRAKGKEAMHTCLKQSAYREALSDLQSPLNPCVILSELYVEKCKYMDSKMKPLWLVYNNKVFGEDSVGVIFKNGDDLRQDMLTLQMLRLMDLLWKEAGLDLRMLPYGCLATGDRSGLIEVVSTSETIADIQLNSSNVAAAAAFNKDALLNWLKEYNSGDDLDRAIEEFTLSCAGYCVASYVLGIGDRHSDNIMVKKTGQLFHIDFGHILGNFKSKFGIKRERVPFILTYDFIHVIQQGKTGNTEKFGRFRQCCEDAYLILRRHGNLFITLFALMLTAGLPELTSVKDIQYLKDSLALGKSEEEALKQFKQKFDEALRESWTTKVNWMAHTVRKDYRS

[4] = Oral bioavailability in rat; format: ADME, organism-based; conditions: in vivo
[5] = molecular target: Phosphatidylinositol 4,5-bisphosphate 3-kinase catalytic subunit alpha isoform (Homo sapiens, UniProt P42336); assay: Inhibition of PI3Kalpha (unknown origin)
Phosphatidylinositol 4,5-bisphosphate 3-kinase catalytic subunit alpha isoform, sequence (P42336 whole entry, canonical isoform): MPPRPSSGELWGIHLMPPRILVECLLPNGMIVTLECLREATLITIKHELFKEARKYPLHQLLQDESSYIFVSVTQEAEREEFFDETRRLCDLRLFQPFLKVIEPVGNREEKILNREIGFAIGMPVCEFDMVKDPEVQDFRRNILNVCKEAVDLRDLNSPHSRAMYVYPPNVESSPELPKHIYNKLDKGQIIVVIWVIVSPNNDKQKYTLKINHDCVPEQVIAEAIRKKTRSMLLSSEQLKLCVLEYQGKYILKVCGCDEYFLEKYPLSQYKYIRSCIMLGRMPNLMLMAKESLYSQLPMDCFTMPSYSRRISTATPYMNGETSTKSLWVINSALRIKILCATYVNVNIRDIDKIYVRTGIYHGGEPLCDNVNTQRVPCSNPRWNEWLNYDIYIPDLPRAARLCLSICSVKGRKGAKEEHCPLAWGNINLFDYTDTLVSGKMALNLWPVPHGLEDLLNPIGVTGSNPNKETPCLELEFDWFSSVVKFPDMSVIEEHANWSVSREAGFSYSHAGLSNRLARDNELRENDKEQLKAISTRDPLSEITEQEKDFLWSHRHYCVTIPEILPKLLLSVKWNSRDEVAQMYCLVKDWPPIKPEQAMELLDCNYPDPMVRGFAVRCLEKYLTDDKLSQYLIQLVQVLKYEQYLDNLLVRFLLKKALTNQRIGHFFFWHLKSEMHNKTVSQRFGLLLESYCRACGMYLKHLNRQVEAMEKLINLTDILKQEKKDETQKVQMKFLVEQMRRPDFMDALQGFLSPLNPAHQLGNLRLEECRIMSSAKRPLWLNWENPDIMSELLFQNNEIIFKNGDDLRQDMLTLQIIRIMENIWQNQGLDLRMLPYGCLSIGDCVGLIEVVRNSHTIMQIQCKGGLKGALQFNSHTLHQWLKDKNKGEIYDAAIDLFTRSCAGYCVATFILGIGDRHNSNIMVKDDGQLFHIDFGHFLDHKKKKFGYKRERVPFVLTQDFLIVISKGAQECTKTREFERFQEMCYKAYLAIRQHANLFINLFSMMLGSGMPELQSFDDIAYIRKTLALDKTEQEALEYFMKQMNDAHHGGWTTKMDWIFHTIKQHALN

[6] = molecular target: T2, Phosphatidylinositol 4,5-bisphosphate 3-kinase catalytic subunit beta isoform; assay: Inhibition of PI3Kbeta (unknown origin)
[7] = molecular target: Phosphatidylinositol 4,5-bisphosphate 3-kinase catalytic subunit gamma isoform (Homo sapiens, UniProt P48736); assay: Inhibition of PI3Kgamma (unknown origin)
Phosphatidylinositol 4,5-bisphosphate 3-kinase catalytic subunit gamma isoform, sequence (P48736 whole entry, canonical isoform): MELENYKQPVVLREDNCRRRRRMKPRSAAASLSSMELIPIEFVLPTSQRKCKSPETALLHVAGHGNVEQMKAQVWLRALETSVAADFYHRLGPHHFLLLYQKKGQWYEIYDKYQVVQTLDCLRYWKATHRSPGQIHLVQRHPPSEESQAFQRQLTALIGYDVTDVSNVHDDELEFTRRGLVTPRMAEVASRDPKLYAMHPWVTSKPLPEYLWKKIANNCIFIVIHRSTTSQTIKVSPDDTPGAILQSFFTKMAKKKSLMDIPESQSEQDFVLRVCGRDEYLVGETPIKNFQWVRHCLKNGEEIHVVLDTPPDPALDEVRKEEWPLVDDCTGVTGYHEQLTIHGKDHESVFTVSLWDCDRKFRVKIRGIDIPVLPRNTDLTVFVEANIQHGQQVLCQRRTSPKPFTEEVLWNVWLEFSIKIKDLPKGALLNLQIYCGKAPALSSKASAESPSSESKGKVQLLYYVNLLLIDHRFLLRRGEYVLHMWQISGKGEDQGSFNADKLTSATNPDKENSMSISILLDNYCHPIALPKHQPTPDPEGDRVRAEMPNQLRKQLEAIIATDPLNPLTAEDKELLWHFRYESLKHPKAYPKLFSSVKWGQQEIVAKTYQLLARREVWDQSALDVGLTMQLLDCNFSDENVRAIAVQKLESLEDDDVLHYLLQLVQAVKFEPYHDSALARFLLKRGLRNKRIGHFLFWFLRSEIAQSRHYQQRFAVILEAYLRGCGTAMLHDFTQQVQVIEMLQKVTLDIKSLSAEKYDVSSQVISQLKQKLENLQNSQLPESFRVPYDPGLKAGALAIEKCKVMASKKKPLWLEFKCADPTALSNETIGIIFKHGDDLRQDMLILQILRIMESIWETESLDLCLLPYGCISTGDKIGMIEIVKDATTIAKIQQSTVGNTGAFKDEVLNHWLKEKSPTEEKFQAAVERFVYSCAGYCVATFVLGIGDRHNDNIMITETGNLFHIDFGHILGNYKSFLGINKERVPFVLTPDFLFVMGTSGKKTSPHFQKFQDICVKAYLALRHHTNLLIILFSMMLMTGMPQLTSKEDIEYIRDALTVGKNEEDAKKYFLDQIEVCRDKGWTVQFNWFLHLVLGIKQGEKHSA

[8] = Inhibition of PI3K in human PBMC assessed as reduction in IFNgamma secretion
[9] = Inhibition of PI3K in human lung parenchyma cells assessed as reduction in IFNgamma secretion
[10] = Inhibition of PI3K in human lung parenchyma cells assessed as reduction in IL2 secretion
Rattus norvegicus = organism: Rattus norvegicus; assay: Antiinflammatory activity in Brown Norway rat acute OVA model of Th2 driven lung inflammation assessed as protection against eosinophil recruitment; format: functional

SMILES: Cc1nnc2n1[C@@H]1CCN(Cc3cc4nc(-c5cccc6[nH]ccc56)nc(N5CCOCC5)c4s3)C[C@@H]1CC2
- IC50 [1]: 0.794 nM
- solubility [2]: 20 µg/mL (≈ 37 µM)

SMILES: COc1ncc(-c2cc(-c3ncc(CN4C[C@@H](C)O[C@@H](C)C4)o3)c3cn[nH]c3c2)cc1NS(C)(=O)=O
- Ki [5]: 501 nM
- Ki [6]: 631 nM
- Ki [7]: 501 nM
- pKi [8]: 9.2
- IC50 [9]: 2 nM
- IC50 [10]: 3.16 nM
- ED50 (Rattus norvegicus): 0.035 mg/kg

Further lines, results first:

- IC50 [3]: 1 nM
SMILES: O=C(NC1=Nc2ccccc2C2=NCCN12)c1cccnc1

- bioavailability [4]: < 2%
SMILES: CC(C)N1CCN(Cc2cnc(-c3cc(-c4cccc5[nH]ccc45)cc4[nH]ncc34)o2)CC1 [NEMIRALISIB]

- IC50 [5]: 316 nM
- IC50 [1]: 2 nM
- IC50 [6]: 1000 nM
- IC50 [7]: 50.1 nM
SMILES: Cc1nc(C(=O)Nc2cc(-c3cnc(Cl)c(NS(=O)(=O)c4ccccc4)c3)cc3[nH]ncc23)cs1

From ChEMBL document CHEMBL4393651, “Class 1 PI3K Clinical Candidates and Recent Inhibitor Design Strategies: A Medicinal Chemistry Perspective” (J Med Chem, 2019)
